Test results: US20230079045A1 (priority 2019, published 2023)

Tested on: IFV A/PR/8/34
Assay: cytopathic effect (CPE) antiviral test in MDCK cells, IFV A/PR/8/34
Assay type: cell-based, influenza virus
Details: MDCK cells, CPE method, CCK-8 cell viability, 5 days; read-out: EC50(IFV A/PR/8/34)

| SMILES | EC50 |
| --- | --- |
| Cn1cncc1-c1ccc2nc(-c3ccnc(C(=O)N4CCN(C(c5ccccc5)c5nnn(C(F)F)n5)CC4)c3)oc2c1 (racemic) [Compound 160, (R/S)-(4-((2-(difluoromethyl)-2H-tetrazol-5-yl)(phenyl)-13-methyl)piperazin-1-yl)(4-(6-(1-methyl-1H-imidazol-5-yl)benzo[d]oxazol-2-yl)pyridin-2-yl)methanone] | 18 nM |

Same assay, conditions: unidentified influenza virus, PR/8, MDCK, 120 h, read-out: EC50(IFV A/PR/8/34)

| SMILES | EC50 |
| --- | --- |
| [2H]C([2H])([2H])C(C(=O)Nc1ccc2oc(-c3ccnc(C(=O)N4CCC(C(c5ccccc5)n5nnc(C)n5)CC4)c3)nc2c1)C([2H])([2H])[2H] (racemic) [Compound 132, 3,3,3-trideuterio-N-[2-[2-[4-[(R/S)-(5-methyltetrazol-2-yl)-phenyl-methyl]piperidine-1-carbonyl]-4-pyridyl]-1,3-benzoxazol-5-yl]-2-(trideuteriomethyl)propanamide] | 4 nM |
| Cc1nnn(C(c2ccccc2)C2CCN(C(=O)c3cc(-c4nc5cc(-c6cnn(C)c6)ccc5o4)ccn3)CC2)n1 (racemic) [Compound 133, (R/S)-(4-(5-(1-methyl-1H-pyrazol-4-yl)benzo[d]oxazol-2-yl)pyridin-2-yl)(4-((5-methyl-2H-tetrazol-2-yl)(phenyl)methyl)piperidin-1-yl)methanone] | 33 nM |
| Cc1nnn(C(c2ccccc2)C2CCN(C(=O)c3cc(-c4nc5cc(NC(=O)C(C)(C)F)ccc5o4)ccn3)CC2)n1 (racemic) [Compound 135, (R/S)-2-fluoro-2-methyl-N-(2-(2-(4-((5-methyl-2H-tetrazol-2-yl)(phenyl)methyl)piperidine-1-carbonyl)pyridin-4-yl)benzo[d]oxazol-5-yl)propanamide] | 23 nM |
| [2H]C([2H])([2H])C(C(=O)Nc1ccc2oc(-c3ccnc(C(=O)N4CCC(C(c5ccccc5)n5nnc(C)n5)CC4)c3)cc2c1)C([2H])([2H])[2H] (racemic) [Compound 137, 3,3,3-trideuterio-N-[2-[2-[4-[(R/S)-(5-methyltetrazol-2-yl)-phenyl-methyl]piperidine-1-carbonyl]-4-pyridyl]benzofuran-5-yl]-2-(trideuteriomethyl)propanamide] | 11 nM |
| Cc1nnn(C(c2ccccc2)C2CCN(C(=O)c3cc(-c4nc5cc(-c6cnsc6)ccc5o4)ccn3)CC2)n1 (racemic) [Compound 140, (R/S)-(4-(5-(isothiazol-4-yl)benzo[d]oxazol-2-yl)pyridin-2-yl)(4-((5-methyl-2H-tetrazol-2-yl)(phenyl)methyl)piperidin-1-yl)methanone] | 4 nM |
| CC(C)(F)C(=O)Nc1ccc2oc(-c3ccnc(C(=O)N4CCN(C(c5ccccc5)c5nnn(C(F)F)n5)CC4)c3)cc2c1 (racemic) [Compound 141, (R/S)—N-(2-(2-(4-((2-(difluoromethyl)-2H-tetrazol-5-yl)(phenyl)methyl)piperazine-1-carbonyl)pyridin-4-yl)benzofuran-5-yl)-2-fluoro-2-methylpropanamide] | 16 nM |
| Cc1nnn(C(c2ccccc2)C2CCN(C(=O)c3cc(-c4cc5cc(NC(=O)C(C)(C)F)ccc5o4)ccn3)CC2)n1 (racemic) [Compound 142, (R/S)-2-fluoro-2-methyl-N-(2-(2-(4-((5-methyl-2H-tetrazol-2-yl)(phenyl)methyl)piperidine-1-carbonyl)pyridin-4-yl)benzofuran-5-yl)propanamide] | 23 nM |
| O=C(c1cc(-c2cc3cc(NC(=O)C4(F)CC4)ccc3o2)ccn1)N1CCN(C(c2ccccc2)c2nnn(C(F)F)n2)CC1 (racemic) [Compound 143, (R/S)—N-(2-(2-(4-((2-(difluoromethyl)-2H-tetrazol-5-yl)(phenyl)methyl)piperazine-1-carbonyl)pyridin-4-yl)benzofuran-5-yl)-1-fluorocyclopropane-1-carboxamide] | 13 nM |
| Cc1nnn(C(c2ccccc2)C2CCN(C(=O)c3cc(-c4cc5cc(NC(=O)C6(F)CC6)ccc5o4)ccn3)CC2)n1 (racemic) [Compound 144] | 7 nM |
| CC(C)n1cc(-c2ccc3oc(-c4ccnc(C(=O)N5CCN(C(c6ccccc6)c6nnn(C(F)F)n6)CC5)c4)nc3c2)cn1 (racemic) [Compound 146, (R/S)-(4-((2-(difluoromethyl)-2H-tetrazol-5-yl)(phenyl)methyl)piperazin-1-yl)(4-(5-(1-isopropyl-1H-pyrazol-4-yl)benzo[d]oxazol-2-yl)pyridin-2-yl)methanone] | 26 nM |
| Cn1cnc(-c2ccc3oc(-c4ccnc(C(=O)N5CCN(C(c6ccccc6)c6nnn(C(F)F)n6)CC5)c4)nc3c2)c1 (racemic) [Compound 147, (R/S)-(4-((2-(difluoromethyl)-2H-tetrazol-5-yl)(phenyl)methyl)piperazin-1-yl)(4-(5-(1-methyl-1H-imidazol-4-yl)benzo[d]oxazol-2-yl)pyridin-2-yl)methanone] | 14 nM |
| O=C(c1cc(-c2nc3cc(-c4cnn(C5CC5)c4)ccc3o2)ccn1)N1CCN(C(c2ccccc2)c2nnn(C(F)F)n2)CC1 (racemic) [Compound 148, (R/S)-(4-(5-(1-cyclopropyl-1H-pyrazol-4-yl)benzo[d]oxazol-2-yl)pyridin-2-yl)(4-((2-(difluoromethyl)-2H-tetrazol-5-yl)(phenyl)methyl)piperazin-1-yl)methanone] | 33 nM |
| O=C(Nc1ccc2oc(-c3ccnc(C(=O)N4CCN(C(c5ccccc5)c5nnn(CF)n5)CC4)c3)nc2c1)[C@@H]1C[C@@H]1F (mixture of isomers) [Compound 150, (1S,2S)-2-fluoro-N-(2-(2-(4-((S/R)-(2-(fluoromethyl)-2H-tetrazol-5-yl)(phenyl)methyl)piperazine-1-carbonyl)pyridin-4-yl)benzo[d]oxazol-5-yl)cyclopropane-1-carboxamide] | 8 nM |
| O=C(c1cc(-c2nc3cc(-c4cnn(C5COC5)c4)ccc3o2)ccn1)N1CCN(C(c2ccccc2)c2nnn(C(F)F)n2)CC1 (racemic) [Compound 151, (R/S)-(4-((2-(difluoromethyl)-2H-tetrazol-5-yl)(phenyl)methyl)piperazin-1-yl)(4-(5-(1-(oxetan-3-yl)-1H-pyrazol-4-yl)benzo[d]oxazol-2-yl)pyridin-2-yl)methanone] | 38 nM |
| Cn1nccc1-c1ccc2oc(-c3ccnc(C(=O)N4CCN(C(c5ccccc5)c5nnn(C(F)F)n5)CC4)c3)nc2c1 (racemic) [Compound 152, (R/S)-(4-((2-(difluoromethyl)-2H-tetrazol-5-yl)(phenyl)methyl)piperazin-1-yl)(4-(5-(1-methyl-1H-pyrazol-5-yl)benzo[d]oxazol-2-yl)pyridin-2-yl)methanone] | 5 nM |
| Cn1ccc(-c2ccc3oc(-c4ccnc(C(=O)N5CCN(C(c6ccccc6)c6nnn(C(F)F)n6)CC5)c4)nc3c2)n1 (racemic) [Compound 153, (R/S)-(4-((2-(difluoromethyl)-2H-tetrazol-5-yl)(phenyl)methyl)piperazin-1-yl)(4-(5-(1-methyl-1H-pyrazol-3-yl)benzo[d]oxazol-2-yl)pyridin-2-yl)methanone] | 7 nM |
| Cc1c(-c2ccc3oc(-c4ccnc(C(=O)N5CCN(C(c6ccccc6)c6nnn(C(F)F)n6)CC5)c4)nc3c2)cnn1C (racemic) [Compound 154, (R/S)-(4-((2-(difluoromethyl)-2H-tetrazol-5-yl)(phenyl)methyl)piperazin-1-yl)(4-(5-(1,5-dimethyl-1H-pyrazol-4-yl)benzo[d]oxazol-2-yl)pyridin-2-yl)methanone] | 5 nM |
| Cc1n[nH]cc1-c1ccc2oc(-c3ccnc(C(=O)N4CCN(C(c5ccccc5)c5nnn(C(F)F)n5)CC4)c3)nc2c1 (racemic) [Compound 155, (R/S)-(4-((2-(difluoromethyl)-2H-tetrazol-5-yl)(phenyl)methyl)piperazin-1-yl)(4-(5-(3-methyl-1H-pyrazol-4-yl)benzo[d]oxazol-2-yl)pyridin-2-yl)methanone] | 1 nM |
| Cc1n[nH]c(C)c1-c1ccc2oc(-c3ccnc(C(=O)N4CCN(C(c5ccccc5)c5nnn(C(F)F)n5)CC4)c3)nc2c1 (racemic) [Compound 156, (R/S)-(4-((2-(difluoromethyl)-2H-tetrazol-5-yl)(phenyl)methyl)piperazin-1-yl)(4-(5-(3,5-dimethyl-1H-pyrazol-4-yl)benzo[d]oxazol-2-yl)pyridin-2-yl)methanone] | 7 nM |
| Cc1cn(-c2ccc3oc(-c4ccnc(C(=O)N5CCN(C(c6ccccc6)c6nnn(C(F)F)n6)CC5)c4)nc3c2)cn1 (racemic) [Compound 158, (R/S)-(4-((2-(difluoromethyl)-2H-tetrazol-5-yl)(phenyl)methyl)piperazin-1-yl)(4-(5-(4-methyl-1H-imidazol-1-yl)benzo[d]oxazol-2-yl)pyridin-2-yl)methanone] | 3 nM |
| O=C(c1cc(-c2nc3cc(-c4cnn(C(F)(F)F)c4)ccc3o2)ccn1)N1CCN(C(c2ccccc2)c2nnn(C(F)F)n2)CC1 (racemic) [Compound 161, (R/S)-(4-((2-(difluoromethyl)-2H-tetrazol-5-yl)(phenyl)methyl)piperazin-1-yl)(4-(5-(1-(trifluoromethyl)-1H-pyrazol-4-yl)benzo[d]oxazol-2-yl)pyridin-2-yl)methanone] | 20 nM |
| Cc1ncc(-c2ccc3oc(-c4ccnc(C(=O)N5CCN(C(c6ccccc6)c6nnn(C(F)F)n6)CC5)c4)nc3c2)n1C (racemic) [Compound 162, (R/S)-(4-((2-(difluoromethyl)-2H-tetrazol-5-yl)(phenyl)methyl)piperazin-1-yl)(4-(5-(1,2-dimethyl-1H-imidazol-5-yl)benzo[d]oxazol-2-yl)pyridin-2-yl)methanone] | 3 nM |
| [2H]C([2H])([2H])C(C(=O)Nc1ccc2oc(-c3ccnc(C(=O)N4CCC(C(c5ccccc5)n5nnc(C(F)F)n5)CC4)c3)nc2c1)C([2H])([2H])[2H] (racemic) [Compound 163, 3,3,3-tideuterio-N-[2-[2-[4-[(R/S)-[5-(difluoromethyl)tetrazol-2-yl]-phenyl-methyl]piperidine-1-carbonyl]-4-pyridyl]-1,3-benzoxazol-5-yl]-2-(trideuteriomethyl)propanamide] | 8 nM |
